The values below come from ChEMBL document CHEMBL1153068, “Discriminatory synergistic effect of Trp-substitutions in superagonist [(Arg/Lys)(14), (Arg/Lys)(15)]nociceptin on ORL1 receptor binding and activation” (Bioorg Med Chem, 2009).

What is called EC50 is the concentration at which the effect is half-maximal. Broadly, the IC50 is the concentration that gives 50% inhibition.

Assay [1] has as its target Nociceptin receptor (Rattus norvegicus) (UniProt P35370). Nature of the assay: Relative potency, ratio of wild type nociceptin IC50 to compound IC50 for rat ORL1 receptor expressed in african green monkey COS7 cells. It is filed as cell-based. As to conditions: COS-7.
Assay [2] has the same target. Nature of the assay: Relative potency, ratio of wild type nociceptin EC50 to compound EC50 for stimulation of [35S]GTPgammaS binding to rat ORL1 receptor expressed in african green monkey COS7 cells. It counts as functional, cell-based. As to conditions: COS-7. On the technique in general: Binding of GTPγS marks nucleotide exchange on a G protein.
Assay [3] has as its target T1, Nociceptin receptor (Rattus norvegicus, UniProt P35370). The assay is described as follows: Agonist activity at rat ORL1 receptor expressed in african green monkey COS7 cells assessed as stimulation of [35S]GTPgammaS binding by radioligand receptor-binding assay. It counts as functional, cell-based, COS-7.
The target of assay [4] is T1, Nociceptin receptor. Nature of the assay: Displacement of [3H]nociceptin from rat ORL1 receptor expressed in african green monkey COS7 cells by competitive binding assay. It counts as cell-based, COS-7.

T1 sequence (P35370 whole entry): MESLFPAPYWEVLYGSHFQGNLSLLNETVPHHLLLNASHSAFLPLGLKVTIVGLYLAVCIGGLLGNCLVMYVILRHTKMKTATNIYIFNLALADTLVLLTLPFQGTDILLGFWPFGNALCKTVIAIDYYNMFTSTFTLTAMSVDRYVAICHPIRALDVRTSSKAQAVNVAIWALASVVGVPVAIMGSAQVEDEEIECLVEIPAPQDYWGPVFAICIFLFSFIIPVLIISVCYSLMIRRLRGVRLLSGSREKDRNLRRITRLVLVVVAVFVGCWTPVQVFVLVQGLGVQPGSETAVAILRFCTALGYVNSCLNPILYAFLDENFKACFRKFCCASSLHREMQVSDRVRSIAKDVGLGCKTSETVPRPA
Sequence of Nociceptin receptor (Rattus norvegicus) (P35370 whole entry): as above

Turning to `C[C@H](NC(=O)CNC(=O)[C@@H](NC(=O)[C@H](Cc1ccccc1)NC(=O)CNC(=O)CNC(=O)[C@@H](N)Cc1ccccc1)[C@@H](C)O)C(=O)N[C@@H](CCCNC(=N)N)C(=O)N[C@@H](CCCCN)C(=O)N[C@@H](CO)C(=O)N[C@@H](C)C(=O)N[C@@H](CCCNC(=N)N)C(=O)N[C@@H](CCCCN)C(=O)N[C@@H](CCCNC(=N)N)C(=O)N[C@@H](CCCCN)C(=O)N[C@@H](CC(N)=O)C(=O)N[C@@H](CCC(N)=O)C(=O)O`, in assay [1], the Ratio IC50 was 3.48. For the same molecule, in assay [2], the Ratio EC50 turned out to be 11.8.
As for H-FGGFTGARKSARKKWNQ-OH, the Ratio IC50 in assay [1] stood at 2.35. Also, the Ratio EC50 in assay [2] turned out to be 4.06. Besides, on Nociceptin receptor [3], the EC50 came out at 3.2 nM. This molecule also came in with an IC50 on Nociceptin receptor [4] of 0.31 nM.
As to H-FGGFTGARKSARKLWNQ-OH, the Ratio IC50 in assay [1] amounted to 0.35. Also, the Ratio EC50 in assay [2] stood at 0.26.
Turning to H-FGGFTGARKSARKRWNQ-OH, the Ratio IC50 in assay [1] is 2.43. Moreover, the Ratio EC50 in assay [2] was found to be 4.19. For the same molecule, the EC50 on Nociceptin receptor [3] came out at 3.1 nM. In addition, the IC50 on Nociceptin receptor [4] turned out to be 0.3 nM.
Regarding H-FGGFTGARKSARKWANQ-OH, the Ratio IC50 in assay [1] stood at 1.78. The Ratio EC50 in assay [2] is 2.24.
As to “H-FGGFTGARKSARKWKNQ-OH [listing 1 of 2 here]”, the concentration giving a half-maximal response (EC50) at Nociceptin receptor [3] was 1.3 nM. The molecule further came in with a 50% inhibitory concentration (IC50) at Nociceptin receptor [4] of 0.25 nM.
With “H-FGGFTGARKSARKWKNQ-OH [listing 2 of 2 here]”, the Ratio IC50 in assay [1] amounted to 2.92. In addition, in assay [2], the Ratio EC50 was found to be 10.
Regarding H-FGGFTGARKSARKWRNQ-OH, the Ratio IC50 in assay [1] was 3.17. Besides, in assay [2], the Ratio EC50 turned out to be 10. Further, the half-maximal effective concentration (EC50) on Nociceptin receptor [3] turned out to be 1.3 nM. Also, at Nociceptin receptor [4], the IC50 came out at 0.23 nM.
